Source: ChEMBL document CHEMBL1201862, “PubChem BioAssay data set” (2004)
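Tested at 5 concentrations; 48 h exposure; 96-well plates; endpoints linearly interpolated, else capped at highest concentration. GI50 marks 50% less growth.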 Calls of active or inactive are those of the source. Rule as the data show it: active = GI50 up to about 1.1 µM and inactive = higher.

Columns and labels:
Test in all cases: growth of human tumour cells (NCI), 48 h
[1] = tested on: SW-620
[2] = tested on: UO-31
[3] = tested on: K562
[4] = tested on: NCI-H23
[5] = tested on: UACC-62
[6] = tested on: SR
[7] = tested on: A549
[8] = tested on: SNB-75
[9] = tested on: MDA-MB-435
[10] = tested on: SNB-19
[11] = tested on: CAKI-1
[12] = tested on: SN12C
[13] = tested on: ACHN
[14] = tested on: CCRF-CEM
[15] = tested on: PC-3
[16] = tested on: MOLT-4
[17] = tested on: NCI-H460
[18] = tested on: MCF7
[19] = tested on: TK-10

CC(C)CC(NC(O)[BH2-][N+](C)(C)C)C(=O)NC(Cc1ccccc1)C(=O)N[C@H]1c2ccsc2/C(=N/O)[C@H]1O (some centres undefined)
GI50 [1]: > 100 µM (inactive) | GI50 [2]: > 100 µM (inactive) | GI50 [3]: > 100 µM (inactive) | GI50 [4]: > 100 µM (inactive) | GI50 [5]: > 100 µM (inactive) | GI50 [6]: > 100 µM (inactive) | GI50 [7]: > 100 µM (inactive) | GI50 [8]: > 100 µM (inactive) | GI50 [9]: > 100 µM (inactive) | GI50 [10]: > 100 µM (inactive) | GI50 [11]: > 100 µM (inactive) | GI50 [12]: > 100 µM (inactive) | GI50 [13]: > 100 µM (inactive) | GI50 [14]: > 100 µM (inactive) | GI50 [15]: > 100 µM (inactive) | GI50 [16]: > 100 µM (inactive) | GI50 [17]: > 100 µM (inactive) | GI50 [18]: > 100 µM (inactive) | GI50 [19]: > 100 µM (inactive)

COC(=O)[C@H](Cc1ccc(OC(C)(C)C)cc1)N[C@H](C)C(=O)N[C@@H](Cc1ccccc1)C(=O)OCc1ccccc1
GI50 [1]: > 100 µM (inactive) | GI50 [2]: 14.8 µM (inactive) | GI50 [3]: 25.6 µM (inactive) | GI50 [4]: > 100 µM (inactive) | GI50 [5]: > 100 µM (inactive) | GI50 [6]: 26.2 µM (inactive) | GI50 [7]: 46.6 µM (inactive) | GI50 [8]: 57.1 µM (inactive) | GI50 [9]: 82.8 µM (inactive) | GI50 [10]: > 100 µM (inactive) | GI50 [11]: > 100 µM (inactive) | GI50 [12]: 26.9 µM (inactive) | GI50 [13]: 93.1 µM (inactive) | GI50 [14]: 40.2 µM (inactive) | GI50 [15]: 61.7 µM (inactive) | GI50 [16]: 20 µM (inactive) | GI50 [17]: > 100 µM (inactive) | GI50 [18]: 34.5 µM (inactive) | GI50 [19]: > 100 µM (inactive)

Oc1ccc(SCc2cc(O)c(O)c(O)c2)cc1
GI50 [1]: 36.5 µM (inactive) | GI50 [2]: 24.8 µM (inactive) | GI50 [3]: 13.2 µM (inactive) | GI50 [4]: 41.4 µM (inactive) | GI50 [5]: 16.9 µM (inactive) | GI50 [6]: 25.5 µM (inactive) | GI50 [7]: 49.5 µM (inactive) | GI50 [8]: 46.5 µM (inactive) | GI50 [9]: 22.4 µM (inactive) | GI50 [10]: 59.4 µM (inactive) | GI50 [11]: 39.6 µM (inactive) | GI50 [12]: 26.4 µM (inactive) | GI50 [13]: 47.9 µM (inactive) | GI50 [14]: 19.3 µM (inactive) | GI50 [15]: 40.3 µM (inactive) | GI50 [16]: 27 µM (inactive) | GI50 [17]: 19.1 µM (inactive) | GI50 [18]: 20.4 µM (inactive) | GI50 [19]: > 100 µM (inactive)

c1ccc2c(c1)ccn1ccc3c4ccccc4nc-3c21
GI50 [1]: 0.202 µM (active) | GI50 [2]: 0.34 µM (active) | GI50 [3]: 0.194 µM (active) | GI50 [4]: 0.289 µM (active) | GI50 [5]: 1.16 µM (inactive) | GI50 [6]: < 0.01 µM (active) | GI50 [7]: 0.32 µM (active) | GI50 [8]: 0.647 µM (active) | GI50 [9]: 0.362 µM (active) | GI50 [10]: 0.776 µM (active) | GI50 [11]: 0.417 µM (active) | GI50 [12]: 0.285 µM (active) | GI50 [13]: 0.228 µM (active) | GI50 [14]: 0.26 µM (active) | GI50 [15]: 0.384 µM (active) | GI50 [16]: 0.0759 µM (active) | GI50 [17]: 0.262 µM (active) | GI50 [18]: 0.229 µM (active) | GI50 [19]: 1.16 µM (inactive)

CCc1c(CNC2=NCCN2)c(CC)c(CNC2=NCCN2)c(CC)c1CNC1=NCCN1
GI50 [1]: > 100 µM (inactive) | GI50 [2]: > 100 µM (inactive) | GI50 [3]: > 100 µM (inactive) | GI50 [4]: > 100 µM (inactive) | GI50 [5]: > 100 µM (inactive) | GI50 [6]: > 100 µM (inactive) | GI50 [7]: > 100 µM (inactive) | GI50 [8]: > 100 µM (inactive) | GI50 [9]: > 100 µM (inactive) | GI50 [10]: > 100 µM (inactive) | GI50 [11]: > 100 µM (inactive) | GI50 [12]: > 100 µM (inactive) | GI50 [13]: > 100 µM (inactive) | GI50 [14]: > 100 µM (inactive) | GI50 [15]: > 100 µM (inactive) | GI50 [16]: > 100 µM (inactive) | GI50 [17]: > 100 µM (inactive) | GI50 [18]: > 100 µM (inactive) | GI50 [19]: > 100 µM (inactive)

COCOc1cc(OC)ccc1C=O
GI50 [1]: 32.8 µM (inactive) | GI50 [2]: 64 µM (inactive) | GI50 [3]: 23.9 µM (inactive) | GI50 [4]: 35.6 µM (inactive) | GI50 [5]: 54.2 µM (inactive) | GI50 [6]: 11.3 µM (inactive) | GI50 [7]: > 100 µM (inactive) | GI50 [8]: 27.5 µM (inactive) | GI50 [9]: 8.39 µM (inactive) | GI50 [10]: 46.1 µM (inactive) | GI50 [11]: 86.9 µM (inactive) | GI50 [12]: 34.5 µM (inactive) | GI50 [13]: 95.7 µM (inactive) | GI50 [14]: 20.7 µM (inactive) | GI50 [15]: 21.8 µM (inactive) | GI50 [16]: 37.2 µM (inactive) | GI50 [17]: 38.5 µM (inactive) | GI50 [18]: 24.5 µM (inactive) | GI50 [19]: 31.6 µM (inactive)
